Experimental data reported in PMC12037426, “Lipid Metabolism-Related Enzyme Inhibition and Antioxidant Potential of the Extracts and Phytochemical Compounds from Trachystemon orientalis (L.) D.Don” (Plant Foods for Human Nutrition (Dordrecht, Netherlands), 2025).
Where two headings read alike, the source gives them in different places.

Assays:
[1] = system: RAW264.7 macrophage cells; design: method as in PMID 27514857; conditions: cited from earlier work
[2] = design: method as in PMID 28122265; conditions: cited from earlier work
PL = conditions: cited from earlier work
[3] = Cupric-reducing antioxidant capacity (CUPRAC) assay
Method: CUPRAC assay was performed according to the modified protocol. Methanolic solutions of Trolox, utilized as a reference, were produced at varying concentrations (1000-62.5 μM). Subsequently, 1 mL of NH4CH3COO and 1 mL of CuCl2.2H2O and 1 of mL neocuproine (Nc) solutions were combined, followed by the addition of 0.5 mL of the sample solution (10 mg/mL) and 0.6 mL of distilled water (1.1-x) water into the mixture. Following the mixing of the tubes and incubation in darkness at ambient temperature for 30 minutes, the absorbance of the samples was measured at 450 nm. The antioxidant capacity of the samples was quantified as TEAC (μM) by comparison with Trolox, the reference chemical.

[4] = system: hypercholesterolemic rats; design: method as in PMID 39615784; conditions: 100 mg/kg, hypercholesterolemic rats on a high-fat diet; cited from earlier work
[5] = Ferric reducing antioxidant power (FRAP) assay
Method: The Fe(II)-TPTZ complex, generated by the reduction of the TPTZ complex in the presence of antioxidants, has a blue colour and is measured at 595 nm. […] Absorbance measurements were recorded at 595 nm after 20 minutes at room temperature. […] FRAP values were reported as μM Trolox equivalents per gram of material.

Pancreatic lipase (PL) = target: T1, Pancreatic lipase (PL) (Homo sapiens, UniProt P16233); test: Pancreatic lipase (PL) inhibition, p-nitrophenyl butyrate substrate; type: biochemical; conditions: for IC50: mean ± SD of triplicate, read-out: Enzyme inhibitory activities IC50 ± SD, Pancreatic lipase (PL) (converted)
T1 sequence (P16233 17-465): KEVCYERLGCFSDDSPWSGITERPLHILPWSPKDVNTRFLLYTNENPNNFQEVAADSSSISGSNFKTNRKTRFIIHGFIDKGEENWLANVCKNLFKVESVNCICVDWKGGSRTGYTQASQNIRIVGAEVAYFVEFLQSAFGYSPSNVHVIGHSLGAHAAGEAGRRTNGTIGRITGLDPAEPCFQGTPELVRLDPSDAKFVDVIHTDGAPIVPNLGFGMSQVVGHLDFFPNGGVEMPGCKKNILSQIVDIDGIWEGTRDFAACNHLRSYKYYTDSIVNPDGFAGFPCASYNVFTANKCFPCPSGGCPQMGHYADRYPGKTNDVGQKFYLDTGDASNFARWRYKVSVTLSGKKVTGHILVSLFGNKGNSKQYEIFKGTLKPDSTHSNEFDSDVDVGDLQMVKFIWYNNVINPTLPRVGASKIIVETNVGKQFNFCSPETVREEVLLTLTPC
Method: PL inhibition was assessed utilizing p-nitrophenyl butyrate as a substrate. The extracts were diluted using a buffer solution (0.1 M Tris-HCl, pH 8.0) to achieve a final concentration range of 12.5-400 µg/mL. […] An enzyme solution (EC 3.1.1.3, 200 units/mL) and a substrate solution (10 mM) were formulated in a buffer solution.
The experimental procedure was structured in microplate wells A (90 µL enzyme solution, 5 µL substrate solution, 5 µL buffer solution), B (90 µL enzyme solution, 10 µL buffer solution), C (90 µL enzyme solution, 5 µL sample solution, 5 µL substrate solution), and D (90 µL enzyme solution, 5 µL sample solution, 5 µL buffer solution). Microplates were incubated at 37 °C for 15 minutes before to and following the addition of substrates. The absorbance values were measured at 405 nm, and the percentage of pancreatic lipase enzyme inhibition was calculated. All concentrations were conducted in triplicate.
% Pancreatic lipase inhibition = [(A-B)-(C-D)/(A-B)] × 100
The IC50 values of the samples on lipase were derived using the graph equation established by plotting the observed percentage of enzyme inhibition against the logarithm of the concentrations (ordinate and abscissa).

3T3-L1 adipocytes = conditions: cited from earlier work
[6] = system: hypercholesterolemic hamsters; conditions: cited from earlier work

| SMILES | lipid accumulation [1] | radical scavenging ability [2] | PL IC50 (PL) [µg/mL] | CUPRAC [3] [µM TEAC] | CUPRAC (copper reducing antioxidant power) ([3]; sample 10 mg/mL) [µM Trolox equivalent/gram] | cholesterol and triglyceride levels [4] | FRAP [5] [µM TEAC] | FRAP (iron reducing antioxidant power) ([5]; sample 10 mg/mL) [µM Trolox equivalent/gram] | PL inhibitory activity IC50 (PL) [µg/mL] | lipase inhibitory activity IC50 (PL) [µg/mL] | IC50 (PL; read-out: lipase inhibitory activity IC50) [µM] | IC50 (Pancreatic lipase (PL)) [µM] | adipogenesis (intracellular triglyceride content and lipid accumulation) (3T3-L1 adipocytes) | cytotoxicity (3T3-L1 adipocytes) | PL inhibition (PL; 100 µg/mL) [%] | PL inhibition (PL; 4 mg/mL) | PL inhibition (PL; first value of two) [%] | PL inhibition (PL; second value of two) [%] | inhibition at 100 µg/mL (Pancreatic lipase (PL); read-out: PL inhibition) [%] | cholesterol absorption and plasma cholesterol levels [6] |
| --- | --- | --- | --- | --- | --- | --- | --- | --- | --- | --- | --- | --- | --- | --- | --- | --- | --- | --- | --- | --- |
| O=C(O)C(O)Cc1ccc(O)c(O)c1 (stereo not shown) [Danshensu, 3,4-dihydroxyphenyl lactic acid] | reduce lipid accumulation | equivalent to that of quercetin | 65.160 ± 4.443 | – | – | – | – | – | – | – | – | – | – | – | – | – | – | – | – | – |
| O=C(/C=C/c1ccc(O)c(O)c1)O[C@H](Cc1ccc(O)c(O)c1)C(=O)O [Rosmarinic acid] | – | equivalent to that of quercetin | – | 1801.389 ± 5.500 | 1801.389 ± 5.500 | improve cholesterol and triglyceride levels comparably to simvastatin | 1274.400 ± 1.633 | 1274.400 ± 1.633 | 125.2 | 49.421 ± 1.448 | 62.8 ± 2.7 | 134 | – | – | – | – | – | – | – | – |
| CC[C@H](CC[C@@H](C)[C@H]1CC[C@H]2[C@@H]3CC=C4C[C@@H](O)CC[C@]4(C)[C@H]3CC[C@]12C)C(C)C [β-sitosterol] | – | – | – | – | – | – | – | – | – | – | – | 101 | efficiently prevented adipogenesis | without including notable cytotoxicity | 79.1 ± 11.3 | 60.67% ± 0.53 | 2.99 ± 0.80 | 8.80 ± 4.15 | 68.5 | decrease cholesterol absorption and plasma cholesterol levels |
